Legend:
[1] = molecular target: DNA polymerase beta (Rattus norvegicus, UniProt P06766); assay: Inhibition of rat DNA polymerase beta assessed as [3H]TTP incorporation after 60 mins by scintillation counting in presence of bovine serum albumin
[2] = molecular target: DNA polymerase beta (Rattus norvegicus) (UniProt P06766); assay: Inhibition of rat DNA polymerase beta assessed as [3H]TTP incorporation at 10 ug/mL after 60 mins by scintillation counting
[3] = molecular target: DNA polymerase beta (Rattus norvegicus) (UniProt P06766); assay: Inhibition of rat DNA polymerase beta assessed as [3H]TTP incorporation at 50 ug/mL after 60 mins by scintillation counting

| IC50 [1] | inhibition [2] | inhibition [3] | Structure (SMILES) |
| --- | --- | --- | --- |
| 6.5 µM | 44% | 92% | Oc1cc(O)cc(CCCCCC/C=C\CCCCCCc2cc(O)cc(O)c2)c1 |
| 5.8 µM | 50% | 79% | Oc1cc(O)cc(CCCCCCCCCCCCCCc2cc(O)cc(O)c2)c1 [BISNORSTRIATOL] |
| 7.5 µM | 51% | 98% | Oc1cc(O)cc(CCC/C=C\CCCCCCCCCc2cc(O)cc(O)c2)c1 |

Source: ChEMBL document CHEMBL1141812, “bis-5-Alkylresorcinols from Panopsis rubescens that inhibit DNA polymerase beta” (J Nat Prod, 1999)
